{
  "source": "patent US20100119622A1",
  "about": "“3H-BENZOOXAZOL-2-ONE MODULATORS OF D2 RECEPTOR AND/OR 5-HT1A RECEPTOR” (AUSPEX PHARMACEUTICALS, INC., priority 2008, published 2010)",
  "origin": "cited, not measured here",
  "conditions": "healthy subjects",
  "data": [
    {"smiles": "O=c1[nH]c2cccc(N3CCN(Cc4cccc(-c5ccccc5)c4)CC3)c2o1", "note": "[Bifeprunox, 7-[4-[(3-Phenylphenyl)methyl]piperazin-1-yl]-3H-benzooxazol-2-one]", "values": [
      {"measurement": "elimination half-life", "result": 14, "unit": "h"}
    ]}
  ]
}
